One assay addresses KDR (Homo sapiens, UniProt P35968). As to the kind of experiment: Enzymatic KDR in vitro inhibition. The class given is biochemical. The protocol: Test for activity against VEGF-receptor tyrosine kinase. The test is conducted using Flt-1 VEGF-receptor tyrosine kinase. The detailed procedure is as follows: 30 μL kinase solution (10 ng of the kinase domain of Flt-1, Shibuya et al., Oncogene 5, 519-24 [1990]) in 20 mM Tris.HCl pH 7.5, 3 mM manganese dichloride (MnCl2), 3 mM magnesium chloride (MgCl2), 10 μM sodium vanadate, 0.25 mg/mL polyethylenglycol (PEG) 20000, 1 mM dithiothreitol and 3 μg/μL poly(Glu,Tyr) 4:1 (Sigma, Buchs, Switzerland), 8 μM [^33P]-ATP (0.2 μCi), 1% DMSO, and 0 to 100 μM of the compound to be tested are incubated together for 10 minutes at room temperature. The reaction is then terminated by the addition of 10 μL 0.25 M ethylenediaminetetraacetate (EDTA) pH 7. Using a multichannel dispenser (LAB SYSTEMS, USA), an aliquot of 20 μL is applied to a PVDF (=polyvinyl difluoride) Immobilon P membrane (Millipore, Bedford, USA), through a Gibco-BRL microtiter filter manifold and connected to a vacuum. Following complete elimination of the liquid, the membrane is washed 4 times successively in a bath containing 0.5% phosphoric acid (H3PO4) and once with ethanol, incubated for 10 minutes each time while shaking, then mounted in a Hewlett Packard TopCount Manifold and the radioactivity measured after the addition of 10 μL Microscint® (β-scintillation counter liquid). IC50-values are determined by linear regression analysis of the percentages for the inhibition of each compound in at least four concentrations (as a rule 0.01, 0.1, 1.0 and 10 μmol).
(§1) Enzymatic (c-Abl, KDR, Flt3) in vitro inhibition data are presented as % inhibition at 10 μM. The measurements are made as described above in the general description.

A further assay addresses T1, c-Abl (Homo sapiens, UniProt P00519).
T1 construct: The His-tagged kinase domain of c-Abl is cloned and expressed in the baculovirus/Sf9 system; His; made in house; host or cells: baculovirus/Sf9
T1 sequence (P00519 242-493 limits assumed): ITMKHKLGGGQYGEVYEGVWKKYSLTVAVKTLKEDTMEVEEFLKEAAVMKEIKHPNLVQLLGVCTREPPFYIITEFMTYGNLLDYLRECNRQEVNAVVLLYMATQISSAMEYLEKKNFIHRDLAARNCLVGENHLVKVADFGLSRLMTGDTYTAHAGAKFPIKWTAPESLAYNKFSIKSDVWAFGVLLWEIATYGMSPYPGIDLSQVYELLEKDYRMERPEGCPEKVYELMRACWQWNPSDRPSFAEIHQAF
The assay is described as follows: Test for activity against c-Abl protein tyrosine kinase (filter binding assay). The assay is classed as biochemical. The protocol: Test for activity against c-Abl protein tyrosine kinase. The test is conducted as a filter binding assay as follows: The His-tagged kinase domain of c-Abl is cloned and expressed in the baculovirus/Sf9 system as described by Bhat et al., J Biol. Chem. 272, 16170-5 (1997). A protein of 37 kD (c-Abl kinase) is purified by a two-step procedure over a Cobalt metal chelate column followed by an anion exchange column with a yield of 1-2 mg/L of Sf9 cells. The purity of the c-Abl kinase is >90% as judged by SDS-PAGE after Coomassie blue staining. The assay contains: c-Abl kinase (50 ng), 20 mM Tris.HCl, pH 7.5, 10 mM MgCl2, 10 μM Na3VO4, 1 mM DTT and 0.06 μCi/assay [γ^33 P]-ATP (5 μM ATP) using 30 μg/mL poly-Ala,Glu,Lys,Tyr-6:2:5:1 (Poly-AEKY, Sigma P1152) in the presence of 1% DMSO, total volume of 30 μL. Reactions are terminated by adding 10 μL of 250 mM EDTA, and 30 μL of the reaction mixture is transferred onto Immobilon-PVDF membrane (Millipore, Bedford, Mass., USA) previously soaked for 5 min with methanol, rinsed with water, then soaked for 5 min with 0.5% H3PO4 and mounted on vacuum manifold with disconnected vacuum source. After spotting all samples, vacuum is connected and each well rinsed with 200 μL 0.5% H3PO4. Membranes are removed and washed on a shaker with 0.5% H3PO4 (4 times) and once with ethanol. Membranes are counted after drying at ambient temperature, mounting in Packard TopCount 96-well frame, and addition of 10 μL/well of Microscint™ (Packard).
as §1

The values below come from patent publication US7956053B2, “Inhibitors of tyrosine kinases” (Novartis AG, priority 2002, dated 2011).

KDR, sequence (P35968 20-1356): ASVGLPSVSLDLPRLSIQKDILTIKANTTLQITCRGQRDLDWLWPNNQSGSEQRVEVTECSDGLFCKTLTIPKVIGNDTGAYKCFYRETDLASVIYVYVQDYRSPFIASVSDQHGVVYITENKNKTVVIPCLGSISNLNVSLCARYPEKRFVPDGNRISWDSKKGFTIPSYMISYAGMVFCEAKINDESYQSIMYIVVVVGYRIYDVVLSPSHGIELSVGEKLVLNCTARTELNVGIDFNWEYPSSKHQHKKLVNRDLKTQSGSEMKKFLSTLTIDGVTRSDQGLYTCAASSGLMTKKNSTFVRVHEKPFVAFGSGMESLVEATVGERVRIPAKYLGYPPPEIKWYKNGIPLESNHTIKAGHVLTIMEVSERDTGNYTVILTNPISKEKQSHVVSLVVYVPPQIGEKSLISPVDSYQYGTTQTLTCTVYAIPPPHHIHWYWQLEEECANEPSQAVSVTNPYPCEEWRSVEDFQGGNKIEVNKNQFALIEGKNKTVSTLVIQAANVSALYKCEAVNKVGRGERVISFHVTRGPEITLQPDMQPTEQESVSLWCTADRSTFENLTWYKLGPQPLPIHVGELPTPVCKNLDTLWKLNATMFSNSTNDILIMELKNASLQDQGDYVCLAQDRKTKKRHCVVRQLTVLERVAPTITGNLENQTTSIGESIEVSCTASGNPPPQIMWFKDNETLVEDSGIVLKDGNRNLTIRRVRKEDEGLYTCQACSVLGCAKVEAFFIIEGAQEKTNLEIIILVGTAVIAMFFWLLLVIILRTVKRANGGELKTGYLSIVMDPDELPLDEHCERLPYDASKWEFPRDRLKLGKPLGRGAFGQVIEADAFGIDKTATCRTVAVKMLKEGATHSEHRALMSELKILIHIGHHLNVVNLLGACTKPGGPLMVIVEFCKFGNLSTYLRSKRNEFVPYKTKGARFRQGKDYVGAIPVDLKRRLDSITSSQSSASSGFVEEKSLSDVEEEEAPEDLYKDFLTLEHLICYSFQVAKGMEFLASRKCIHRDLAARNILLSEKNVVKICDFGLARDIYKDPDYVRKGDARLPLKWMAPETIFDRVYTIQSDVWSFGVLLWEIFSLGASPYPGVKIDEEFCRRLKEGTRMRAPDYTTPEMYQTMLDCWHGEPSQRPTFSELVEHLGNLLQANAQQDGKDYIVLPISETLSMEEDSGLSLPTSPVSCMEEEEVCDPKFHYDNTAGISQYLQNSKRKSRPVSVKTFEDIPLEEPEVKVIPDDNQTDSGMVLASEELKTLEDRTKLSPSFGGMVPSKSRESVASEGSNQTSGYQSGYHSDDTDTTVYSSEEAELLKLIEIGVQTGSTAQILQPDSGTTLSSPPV

For orientation: inhibition means the drop in the measured response relative to a control, in per cent. `COCCN(CCOC)C(=O)c1ccc(C)c(Nc2nccc(-c3cccnc3)n2)c1` [Example 45, N,N-bis(2-Methoxyethyl)-4-methyl-3-[[4-(3-pyridinyl)-2-pyrimidinyl]amino]benzamide]: the inhibition at 10 µM on KDR came to 61%; at c-Abl it was 34%.
For `Cc1ccc(C(=O)N2CCC(N3CCCCC3)CC2)cc1Nc1nccc(-c2cccnc2)n1` [Example 46, 1′-[4-Methyl-3-[[4-(3-pyridinyl)-2-pyrimidinyl]amino]benzoyl]-1,4′-bipiperidine] the same measures were 43% and 1%.
The corresponding values for `CCOC(=O)CN(Cc1ccccc1)C(=O)c1ccc(C)c(Nc2nccc(-c3cccnc3)n2)c1` [Example 47, N-[4-Methyl-3-[[4-(3-pyridinyl)-2-pyrimidinyl]amino]benzoyl]-N-(phenylmethyl)-glycine ethyl ester] are 74% and 39%.
With `Cc1ccc(C(=O)Nc2cccc(Cl)c2)cc1Nc1nccc(-c2cccnc2)n1` [Example 48, N-(3-Chlorophenyl)-4-methyl-3-[[4-(3-pyridinyl)-2-pyrimidinyl]amino]benzamide], the results for the inhibition at 10 µM at KDR and on c-Abl were 50% and 90%, respectively.
The corresponding values for `Cc1ccc(C(=O)NCC(c2ccccc2)c2ccccc2)cc1Nc1nccc(-c2cccnc2)n1` [Example 49, N-(2,2-Diphenylethyl)-4-methyl-3-[[4-(3-pyridinyl)-2-pyrimidinyl]amino]-benzamide] are 37% and 72%.
The corresponding values for `Cc1ccc(C(=O)NC2CCc3ccccc32)cc1Nc1nccc(-c2cccnc2)n1` (centres unmarked) [Example 50, N-(2,3-Dihydro-1H-inden-1-yl)-4-methyl-3-[[4-(3-pyridinyl)-2-pyrimidinyl]amino]benzamide] are 83% and 87%.
For `Cc1ccc(C(=O)NC(c2ccccc2)c2ccccc2)cc1Nc1nccc(-c2cccnc2)n1` [Example 51, N-(Diphenylmethyl)-4-methyl-3-[[4-(3-pyridinyl)-2-pyrimidinyl]amino]benzamide] the same measures were 52% and 92%.
In the case of `Cc1ccc(C(=O)NCCN2CCCCC2)cc1Nc1nccc(-c2cccnc2)n1` [Example 52, 4-Methyl-N-[2-(1-piperidinyl)ethyl]-3-[[4-(3-pyridinyl)-2-pyrimidinyl]amino]benzamide], the figures for the inhibition at 10 µM against KDR and on c-Abl were 37% and 78%, respectively.
Consider `Cc1ccc(C(=O)Nc2cccc3c2CCCC3)cc1Nc1nccc(-c2cccnc2)n1` [Example 53, 4-Methyl-3-[[4-(3-pyridinyl)-2-pyrimidinyl]amino]-N-(5,6,7,8-tetrahydro-1-naphthalenyl)benzamide], for which the inhibition at 10 µM is 79% on KDR and 88% on c-Abl.
In the case of `Cc1ccc(C(=O)NCc2ccc(C(F)(F)F)cc2)cc1Nc1nccc(-c2cccnc2)n1` [Example 54, 4-Methyl-3-[[4-(3-pyridinyl)-2-pyrimidinyl]amino]-N-[[4-(trifluoromethyl)phenyl]methyl]benzamide], the inhibition at 10 µM against KDR stood at 74%; at c-Abl, 69%.
For `CCOCCNC(=O)c1ccc(C)c(Nc2nccc(-c3cccnc3)n2)c1` [Example 56, N-(2-Ethoxyethyl)-4-methyl-3-[[4-(3-pyridinyl)-2-pyrimidinyl]amino]benzamide], the inhibition at 10 µM on KDR was determined as 44%; on c-Abl, 40%.
For the compound `Cc1ccc(C(=O)NCCN2CCNC2=O)cc1Nc1nccc(-c2cccnc2)n1` [Example 57, 4-Methyl-N-[2-(2-oxo-1-imidazolidinyl)ethyl]-3-[[4-(3-pyridinyl)-2-pyrimidinyl]amino]benzamide], the values for the inhibition at 10 µM against KDR and on c-Abl were 42% and 8%, respectively.
For `Cc1ccc(NC(=O)c2ccc(C)c(Nc3nccc(-c4cccnc4)n3)c2)nc1` [Example 58, 4-Methyl-N-(5-methyl-2-pyridinyl)-3-[[4-(3-pyridinyl)-2-pyrimidinyl]amino]benzamide], the inhibition at 10 µM against KDR turned out to be 26%; at c-Abl, 40%.
For `Cc1ccc(C(=O)N2CCC(O)(c3ccccc3)CC2)cc1Nc1nccc(-c2cccnc2)n1` [Example 59, 1-[4-Methyl-3-[[4-(3-pyridinyl)-2-pyrimidinyl]amino]benzoyl]-4-phenyl-4-piperidinol] the same measures were 83% and 75%.
For `Cc1ccc(C(=O)Nc2cccc(C(=O)c3ccccc3)c2)cc1Nc1nccc(-c2cccnc2)n1` [Example 60, N-(3-Benzoylphenyl)-4-methyl-3-[[4-(3-pyridinyl)-2-pyrimidinyl]amino]benzamide], the inhibition at 10 µM is 36% against KDR and 79% on c-Abl.
The corresponding values for `Cc1ccc(C(=O)NCC(=O)OC(C)(C)C)cc1Nc1nccc(-c2cccnc2)n1` [Example 61, N-[4-Methyl-3-[[4-(3-pyridinyl)-2-pyrimidinyl]amino]benzoyl]-glycine 1,1-dimethylethyl ester] are 65% and 95%.
The corresponding values for `CCOC(=O)Cc1ccc(NC(=O)c2ccc(C)c(Nc3nccc(-c4cccnc4)n3)c2)cc1` [Example 62, 4-[[4-Methyl-3-[[4-(3-pyridinyl)-2-pyrimidinyl]amino]benzoyl]amino]benzene-acetic acid ethyl ester] are 44% and 59%.
The corresponding values for `Cc1ccc(C(=O)NCCCN(C)c2ccccc2)cc1Nc1nccc(-c2cccnc2)n1` [Example 63, 4-Methyl-N-[3-(methylphenylamino)propyl]-3-[[4-(3-pyridinyl)-2-pyrimidinyl]-amino]benzamide] are 82% and 74%.
Turning to `CCOC(=O)C1CCN(Cc2cccc(NC(=O)c3ccc(C)c(Nc4nccc(-c5cccnc5)n4)c3)c2)CC1` [Example 64, 1-[[3-[[4-Methyl-3-[[4-(3-pyridinyl)-2-pyrimidinyl]amino]benzoyl]amino]phenyl]-methyl]-4-piperidinecarboxylic acid ethyl ester], the results for the inhibition at 10 µM against KDR and on c-Abl were 59% and 56%, respectively.
For `CCOC(=O)C(NC(=O)c1ccc(C)c(Nc2nccc(-c3cccnc3)n2)c1)C(=O)OCC` [Example 65, [[4-Methyl-3-[[4-(3-pyridinyl)-2-pyrimidinyl]amino]benzoyl]amino]propanedioic acid diethyl ester] the same measures were 60% and 96%.
On to `Cc1ccc(C(=O)NCCN(C(C)C)C(C)C)cc1Nc1nccc(-c2cccnc2)n1` [Example 66, N-[2-[bis(1-Methylethyl)amino]ethyl]-4-methyl-3-[[4-(3-pyridinyl)-2-pyrimidinyl]-amino]benzamide], for which the inhibition at 10 µM stood at 23% against KDR and 67% at c-Abl.
Consider `Cc1ccc(C(=O)NCc2cc(C(C)(C)O)cc(C(F)(F)F)c2)cc1Nc1nccc(-c2cccnc2)n1` [Example 68, 4-Methyl-3-[[4-(3-pyridinyl)-2-pyrimidinyl]amino]-N-[[3-[(1-hydroxy-1-methyl-ethyl)]-5-(1,1,1-trifluoromethyl)phenyl]methyl]benzamide], for which the inhibition at 10 µM at KDR stood at 96%; on c-Abl, 99%.
